Converted amounts (≈) assume the structure as drawn.
Each compound was assayed on Vaccinia virus (assay: Minimum inhibitory concentration required to reduce vaccinia virus-induced cytopathogenicity in primary rabbit kidney cell cultures). Details: Orthopoxvirus vaccinia.
Format: functional
With O=c1[nH]c(=O)n([C@H]2C[C@H](O)[C@@H](CO)O2)cc1/C=C\Br the MIC was 4 µg/mL (≈ 12 µM).
O=c1[nH]c(=O)n([C@H]2C[C@H](O)[C@@H](CO)O2)cc1/C=C/Br [BRIVUDINE] was tested, and the MIC was 4 µg/mL (≈ 12 µM).
For O=c1[nH]c(=O)n([C@H]2C[C@H](O)[C@@H](CO)O2)cc1I [IDOXURIDINE], the MIC was 0.1 µg/mL (≈ 0.282 µM).
